From the NIST ThermoML archive (doi:10.1021/acs.jced.7b00267)

Settings: 101.35 kPa, Liquid; for viscosity: Falling or rolling sphere viscometry; for mass density: Vibrating tube method

CCO [ethanol]
Settings	mass density [kg/m3]	viscosity [mPa·s]
293.15 K	789.5	1.194
298.15 K	785.2	1.085
303.15 K	780.8	0.9897
308.15 K	776.5	0.9036
313.15 K	772.1	0.8277
318.15 K	767.7	0.759
323.15 K	763.2	0.6978
328.15 K	758.7	0.6434
333.15 K	754.1	0.5942
